Earlier results in patent US7119079B2, “Bioadhesive pharmaceutical compositions” (priority 2003, dated 2006).

How the values were obtained:
[1] = tested on: Mycobacterium tuberculosis
[2] = tested on: distal ulcerative colitis; conditions: compared with hydrocortisone and mesalamine enemas
[3] = tested on: distal ulcerative colitis; conditions: enemas, patients with distal ulcerative colitis; fraction of patients

Structure (SMILES)	activity against Mycobacterium tuberculosis [1]	effectiveness of enemas in distal ulcerative colitis [2]	patients showing improvement [3]
Nc1ccc(C(=O)O)c(O)c1 [Compound 4-ASA, 4-amino salicylic acid]	bacteriostatic	as effective as hydrocortisone enemas and as effective as mesalamine enemas	
Nc1ccc(O)c(C(=O)O)c1 [mesalamine, 5-amino salicylic acid]			Three quarters
Nc1ccc(S(=O)(=O)Nc2ccccn2)cc1 [sulfapyridine]			about one third
O=C(O)c1cc(/N=N/c2ccc(S(=O)(=O)Nc3ccccn3)cc2)ccc1O [sulfasalazine, salicyl-azo-sulfapyridine]			Three quarters
